Measurements published in ChEMBL document CHEMBL1201862, “PubChem BioAssay data set” (2004).
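Briefly, cells in 96-well plates were exposed to five compound concentrations for 48 h, and endpoints were estimated by linear interpolation. Abbreviation: GI50, concentration required for 50% inhibition of growth.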 Active and inactive are the calls of the source. Cut-off read from the data, not from the text of the source: active = GI50 up to about 1.1 µM and inactive = higher.

Assays:
Assay in all cases: NCI tumour cell line growth inhibition, 48 h
DMS-114 = system: DMS-114
M19-MEL = system: M19-MEL
LXFL 529 = system: LXFL 529
KM-20L2 = system: KM-20L2
DMS-273 = system: DMS-273
XF498 = system: XF498
SNB-78 = system: SNB-78
RXF 631 = system: RXF 631
HOP-18 = system: HOP-18

Row | SMILES | GI50 (DMS-114) | GI50 (M19-MEL) | GI50 (LXFL 529) | GI50 (KM-20L2) | GI50 (DMS-273) | GI50 (XF498) | GI50 (SNB-78) | GI50 (RXF 631) | GI50 (HOP-18)
1 | COc1cc(/C=C2\Cc3ccccc3C2=O)cc(OC)c1OC | > 100 µM (inactive) | > 100 µM (inactive) | > 100 µM (inactive) | > 100 µM (inactive) | > 100 µM (inactive) | > 100 µM (inactive) | > 100 µM (inactive) | > 100 µM (inactive) | > 100 µM (inactive)
2 | Cc1ccc2oc(=O)cc(CC(=O)O)c2c1 |  | > 100 µM (inactive) | > 100 µM (inactive) | > 100 µM (inactive) | > 100 µM (inactive) | 24.5 µM (inactive) |  | > 100 µM (inactive) | > 100 µM (inactive)
3 | Cc1c(C(=O)CC(=O)C(=O)Nc2c(C(C)C)cccc2C(C)C)[n+]([O-])c2ccccc2[n+]1[O-] | 2.59 µM (inactive) | 1.99 µM (inactive) | 11.1 µM (inactive) | 4.55 µM (inactive) | 3.4 µM (inactive) | 3.05 µM (inactive) | 12.4 µM (inactive) | 3.3 µM (inactive) | 
4 | CC(C)(C)C1CCN(C(=O)c2ccccc2)CC1 | 28.8 µM (inactive) | > 100 µM (inactive) | 70 µM (inactive) | > 100 µM (inactive) | > 100 µM (inactive) | < 0.01 µM (active) | > 100 µM (inactive) |  | 84.1 µM (inactive)
5 | CCCCCCCCC1C(C)c2c([nH]c3ccccc23)C2C(=O)N(c3ccccc3)C(=O)C21 (stereo unspecified) | 10.6 µM (inactive) | 15.7 µM (inactive) | 16.5 µM (inactive) | 11.2 µM (inactive) | 9.75 µM (inactive) |  | 9.62 µM (inactive) | 3.41 µM (inactive) | 
6 | [O-][S+]1Nc2c(Cl)cc(Cl)c(Cl)c2S1 (stereo unspecified) | 76.2 µM (inactive) | > 100 µM (inactive) | > 100 µM (inactive) | > 100 µM (inactive) | > 100 µM (inactive) |  | > 100 µM (inactive) |  | > 100 µM (inactive)
7 | CC(C)(C)NNc1c([N+](=O)[O-])cnn(-c2ccccc2)c1=O |  | 2.47 µM (inactive) | 1.78 µM (inactive) | 6.44 µM (inactive) | 3.2 µM (inactive) | 2.55 µM (inactive) | 15.6 µM (inactive) |  | 16.7 µM (inactive)
8 | CC(Nc1ccc(S(=O)(=O)NC(=N)N)cc1)c1c2ccccc2nc2ccccc12 (stereo unspecified) | 31.7 µM (inactive) | 34.4 µM (inactive) | 28.8 µM (inactive) | 31.8 µM (inactive) | 28.3 µM (inactive) | 15.8 µM (inactive) |  | 26 µM (inactive) | 
9 | O=c1[nH]c2cc([N+](=O)[O-])ccc2nc1/C(=N\NO)C(O)c1ccc([N+](=O)[O-])cc1 (stereo unspecified) | 32.6 µM (inactive) | > 100 µM (inactive) | > 100 µM (inactive) | 32.2 µM (inactive) | > 100 µM (inactive) | > 100 µM (inactive) | > 100 µM (inactive) | > 100 µM (inactive) | 
10 | Cc1nc(-n2nc(-c3ccccc3)cc2-c2ccccc2)sc1C(=O)/C=C/c1ccc([N+](=O)[O-])cc1 |  | 20.3 µM (inactive) |  | 33.7 µM (inactive) | 20.8 µM (inactive) |  | 61.9 µM (inactive) | 23 µM (inactive) | > 100 µM (inactive)
11 | CC12OC3(C)OC(=O)C(c4ccccc4)(O1)C3(C)O2 (stereo unspecified) | > 100 µM (inactive) | > 100 µM (inactive) | > 100 µM (inactive) | > 100 µM (inactive) | > 100 µM (inactive) |  | > 100 µM (inactive) | > 100 µM (inactive) | > 100 µM (inactive)
12 | C/C(=N\NS(=O)(=O)c1c(C)cc(C)cc1C)c1ccc[n+]([O-])n1 | 17.3 µM (inactive) | 13.9 µM (inactive) | 11.3 µM (inactive) | 22.9 µM (inactive) | 16.2 µM (inactive) |  | 14.3 µM (inactive) | 27.5 µM (inactive) | 19.2 µM (inactive)
13 | COc1ccc2oc(C(=O)O)c3c2c1CCC3 | > 100 µM (inactive) | > 100 µM (inactive) | > 100 µM (inactive) | > 100 µM (inactive) | > 100 µM (inactive) | > 100 µM (inactive) | > 100 µM (inactive) |  | > 100 µM (inactive)
14 | COc1ccc(/N=N/c2c(-c3ccccc3)nn(C(=O)CC(=O)Nc3ccc(OC)cc3)c2-c2ccccc2)cc1 | 60 µM (inactive) | > 100 µM (inactive) | 60.5 µM (inactive) |  | > 100 µM (inactive) | 27 µM (inactive) | 34.6 µM (inactive) | 59.3 µM (inactive) | 84.3 µM (inactive)
15 | O=C1Nc2cc(F)ccc2C1=O | 50.8 µM (inactive) | > 100 µM (inactive) | > 100 µM (inactive) | > 100 µM (inactive) | > 100 µM (inactive) | > 100 µM (inactive) | > 100 µM (inactive) |  | > 100 µM (inactive)
16 | CC12CCC3(OCCO3)C(OC(=O)c3ccccc3)=C1CCC21OCCO1 (stereo unspecified) | > 100 µM (inactive) | > 100 µM (inactive) | > 100 µM (inactive) | > 100 µM (inactive) | > 100 µM (inactive) |  | > 100 µM (inactive) | > 100 µM (inactive) | > 100 µM (inactive)
17 | O=C(O)CCSC(=O)Nc1ccccc1F | > 100 µM (inactive) |  | > 100 µM (inactive) | > 100 µM (inactive) | > 100 µM (inactive) |  | > 100 µM (inactive) |  | 
18 | O=C1NC(=O)C(=O)C(c2nc3ccccc3s2)C1=O | > 100 µM (inactive) | > 100 µM (inactive) | > 100 µM (inactive) | > 100 µM (inactive) | > 100 µM (inactive) | > 100 µM (inactive) | > 100 µM (inactive) |  | > 100 µM (inactive)
19 | O=C(CC(=O)c1cccc([N+](=O)[O-])c1)C(=O)Nc1nc([N+](=O)[O-])cs1 | > 100 µM (inactive) | > 100 µM (inactive) | 60.1 µM (inactive) | > 100 µM (inactive) | > 100 µM (inactive) |  | > 100 µM (inactive) | > 100 µM (inactive) | > 100 µM (inactive)
20 | NC(=O)OCC(COc1ccc(Cl)cc1)OC(=O)c1ccccc1Cl (stereo unspecified) | 14.6 µM (inactive) |  | 24.1 µM (inactive) | 19.3 µM (inactive) | 20.5 µM (inactive) |  | 36.1 µM (inactive) | 20.3 µM (inactive) | 26.1 µM (inactive)
21 | CCC(CC)n1cc(C(=O)NC(=O)NCCCCCOC(=O)CCCCCCCCCCC(=O)OCCCCCNC(=O)NC(=O)c2cn(C(CC)CC)c(=O)[nH]c2=O)c(=O)[nH]c1=O | > 100 µM (inactive) | > 100 µM (inactive) | 62.8 µM (inactive) | > 100 µM (inactive) | > 100 µM (inactive) | > 100 µM (inactive) | > 100 µM (inactive) | > 100 µM (inactive) | > 100 µM (inactive)
22 | NC(=O)CCC(Nc1c2ccccc2[n+]([O-])c2ccccc12)C(=O)O (stereo unspecified) | 37.1 µM (inactive) | 77.3 µM (inactive) | 31 µM (inactive) | > 100 µM (inactive) | 65 µM (inactive) |  | > 100 µM (inactive) |  | 16 µM (inactive)
23 | O=S(=O)(O)c1cc(S(=O)(=O)O)c2cc(/N=N/c3ccc(/N=N/c4ccc(/C=C/c5ccc(/N=[N+](/[O-])c6ccc(/C=C/c7ccc(/N=N/c8ccc(/N=N/c9ccc%10cc(S(=O)(=O)O)cc(S(=O)(=O)O)c%10c9)cc8)cc7S(=O)(=O)O)c(S(=O)(=O)O)c6)cc5S(=O)(=O)O)c(S(=O)(=O)O)c4)cc3)ccc2c1 | > 57.4 µM (inactive) | > 25 µM (inactive) |  | 58.9 µM (inactive) | > 55.6 µM (inactive) | 45.2 µM (inactive) | 53.5 µM (inactive) |  | 
24 | C1=Cc2nc1c(-c1ccccc1)c1ccc([n-]1)c(-c1ccccc1)c1nc(c(-c3ccccc3)c3ccc([n-]3)c2-c2ccccc2)C=C1.[Zn+2] | > 100 µM (inactive) | > 100 µM (inactive) | > 100 µM (inactive) | > 100 µM (inactive) |  | > 100 µM (inactive) | > 100 µM (inactive) | > 100 µM (inactive) | 
25 | CC(C)(C)[C@H]1CC[C@@](O)(c2ccccc2)CC1.CC(C)(C)[C@H]1CC[C@](O)(c2ccccc2)CC1 | 21.1 µM (inactive) | 19.4 µM (inactive) | 21.1 µM (inactive) | 16.1 µM (inactive) | 15.3 µM (inactive) | < 0.01 µM (active) | 21.8 µM (inactive) |  | 37.8 µM (inactive)
26 | O=C1/C(=C/c2ccccc2)CNC/C1=C\c1ccccc1 | 2.11 µM (inactive) | 1.02 µM (active) | 1.49 µM (inactive) | 1.39 µM (inactive) | 0.721 µM (active) | 2.32 µM (inactive) | 10.4 µM (inactive) | 2.91 µM (inactive) | 11 µM (inactive)
